Values after ≈ are worked out from the molar mass of the structure shown.
Columns and labels:
HPV 6/11 Virus = test: HPV detection via fluorescence quantitative PCR in genital warts tissue homogenate; parameters: species or system human papillomavirus; conditions: for HPV 6/11 virus detection, in words: 24 hours after addition into the tissue homogenate of genital warts; for HPV 6/11 Virus: genital warts tissue homogenate, 37° C., 24 hours, FQ-PCR
Source text: (§1) The aforesaid compounds and/or compositions containing the same are effective in killing and inhibiting HPV type 6/11 and type 16/18, which can be used for the preparation of drugs for preventing and treating viral infection of HPV, preventing and treating genital warts, flat warts, common warts, vaginitis, cervicitis and cervical erosion, cervical cancer, esophageal cancer and other cancers caused by HPV. The present invention observes the effect of active ingredients and products by the detection of the change in the amount of the HPV virus through the real-time quantitative PCR. Such method has been applied in several publications (Youling C A I, et al., Chinese STD/AIDS, 2002, 8: 2,108; Yuansheng W U, Ruijiang F A N, et al., Practical Application of Integrated Chinese and Western Medicine in Clinics, 2003, 3: 2,1).
(§2) The microemulsion obtained in example 1 is used as a test sample and saline for blank control.
(§3) The standard clinical genital warts specimens from a variety of patients after being cut off are washed with saline for removing bloods, and are cut into pieces under aseptic conditions, added with saline in 3 times of their volumes to be uniformly mixed, grinded into homogenate and placed at −40° C. for use.
(§4) Each test sample drug microemulsion and the saline of 50 μl for each are respectively added with 50 μl the genital warts tissue homogenate, and incubated at 37° C. for 24 hours; tests are performed according to the operation procedure provided by the HPV6, 11 and 16, 18 type FQ-PCR diagnostic kits provided by Da'an Gene Diagnostic Center. 0.2 ml of DNA extracted by the conventional alkaline lysis method is put into the thin-walled reaction tube, and simultaneously added with primers, F-PROBE, DNTP, DNA polymerase, buffers and the like in a certain concentration; ABI PRISM™ 7700 fluorescence quantitative PCR amplifier is used to repeat 40 circulations each with 45 s at 93° C. and 120 s at 55° C. after predegeneration at 93° C. for 2 mins; the quantitative results are automatically analyzed by the computer software to calculate the quantitative results of the initial copy number. The data are shown in Table 2 (completed by Da'an Gene Clinical Test Center).

HPV16/18 = test: as above; parameters: species or system human papillomavirus; conditions: for HPV16/18 virus detection, in words: 24 hours after addition into the tissue homogenate of genital warts; for HPV16/18: genital warts tissue homogenate, 37° C., 24 hours, FQ-PCR
Source text: as §1, §2, §3, §4

HSV-I, VR733 strain = test: Inhibition of cytopathic effects of Vero cells caused by herpes virus type I; type: cell-based; conditions: Human alphaherpesvirus 1; Vero cells, CPE 48 hours, Reed-Muench; read-out: IC50 Against HSV-1
Source text: Vero cells (kidney cells of African green monkey) are used as viral hosts to test the inhibition degree of the samples to the cytopathic effects of Vero cells caused by herpes virus type I and type II.
Vero cells (kidney cells of African green monkey) are used as viral hosts to test the inhibition degree of the samples to cytopathic effects of the Vero cell caused by herpes virus type I and type II.
1. Virus strains: HSV-I, VR733 strain, and HSV-II, SAV strain, which both are provided by ATCC.
2. Sample treatment: the sample is dissolved in DMSO at an appropriate concentration before use, and diluted with the culture medium 3 times at a total of 8 dilutions for test.
3. Positive control drug: acyclovir (ACV) produced by the Hubei Ke Yi pharmaceutical factory.

[1] = test system: human umbilical vein endothelial cell line (ECV304); test: MTT in vitro cell inhibition; type: cell-based; conditions: 3 days
Source text: An effective amount of the above compounds and/or the compositions containing the same used as an active ingredient have an effect on inhibiting the tumor cells. The present invention detects the inhibitory effect of the hydroxy-substituted benzophenone compounds on the proliferation of the in vitro cultured human tumor cells by the methylthiazolyl tetrazolium method.
The method is used to detect cell viability. […] Particles can be dissolved by dimethyl sulfoxide (DMSO) isopropyl alcohol or 10% acidified SDS (sodium dodecyl sulfate), and a microplate reader is used to measure the OD value at A570 wavelength, which indirectly reflects the number of live cells. The method is used for detection of the cytokines bioactivity, as well as anti-tumor drugs and tumor radiosensitivity and cytotoxicity test, and has the characteristics of being simple, fast, economical, sensitive and accurate and having good reproducibility and no need to use radionuclides. This method has been widely used in screening preclinical anticancer drugs and detecting the drug sensitivity of fresh tumor cells. The method is as below:
(1) The tumor cell suspension prepared by 0.25% of trypsin digestion and adjusted to a cell concentration of 10^5/ml with RPMI1640 containing 10% fetal calf serum is added to a 96-well plate with 100 μl for each well, cultured 24 hours, and then different dosages of drugs are added with 100 μl/well, for which, the negative control groups, positive control groups and withering wells are set, and 4 parallel wells are set for each group.
(2) They are continually cultured in incubator containing 5% of CO2 at 37° C. for 24 to 48 hours. MTT solution (5 g/L) is added to each well before the termination of the experiment. The OD value at A570 nm is detected by microplate reader. The OD value at A570 of the negative group without the addition of drugs is taken as a control. The cell survival rate and cell inhibition rate of drugs are calculated according to the following formula: Cell survival rate=(OD value of test group/OD value of control group)×100% Cell inhibition rate (%)=(OD value of the control group−OD value of the test group/(OD value of the control group−OD value of the blank group)
1. Tumor cell lines: human glioma cell line (U251), human colon cancer cell line (LOVO), human hepatoma cell line (HepG2), human lung cancer cell line (PC84045), human endometrial carcinoma cell line (JEC), human renal carcinoma (GRC), human gastric cancer cell line (MCG804), human cervical cancer cell line (HeLa), human hepatocellular carcinoma cell line (BEL-7402) and human umbilical vein endothelial cell line (ECV304) purchased from Animal Experimental Center of Zhongshan Medical College, and preserved by the present laboratory.
The tumor cell lines are cultured in RPMI-1640 medium containing 15% of the newborn bovine serum in a conventional manner, placed in the humidification incubator containing 5% of CO2 for being cultured at 37° C., and are observed for growth by an inverted microscope. A subculture is conducted every about 3-5 days, the cells in logarithmic growth phase are adopted to be digested with 0.25% of trypsin, and the serum-free RPMI-1640 medium is used for culturing the cell suspension; the blood counting plate makes counting, the trypan blue exclusion tests the cell activity, and the cell viability>95% is used for formal tests.
Liquid preparation: the compounds are labeled with the codes respectively, DMSO is used to dissolve each compound, the bacterial filter is used to remove bacteria, and each compound is prepared into 10^−4 g/ml, 10^−5 g/ml, 10^−6 g/ml and preserved at 4° C. for use. […]

| Structure (SMILES) | HPV 6/11 virus detection, in words (HPV 6/11 Virus) | HPV 6/11 Virus (HPV 6/11 Virus) | HPV16/18 virus detection, in words (HPV16/18) | HPV16/18 (HPV16/18) | IC50 (HSV-I, VR733 strain) | Inhibitory rate % ([1]; ECV304, 10^−4 g/ml) | Inhibitory rate, sensitivity class ([1]; ECV304, 10^−5 g/ml) | Inhibitory rate, sensitivity class ([1]; ECV304, 10^−6 g/ml) | Inhibitory rate % ([1]; ECV304, 10^−5 g/ml) | Inhibitory rate % ([1]; ECV304, 10^−6 g/ml) |
| --- | --- | --- | --- | --- | --- | --- | --- | --- | --- | --- |
| O=C(c1ccc(O)c(O)c1O)c1ccc(O)c(O)c1O [2,3,4,2′,3′,4′-hexahydroxybenzophenone] | can no longer be detected | 0 copy/ml | can no longer be detected | 0 copy/ml | 28.7 µg/mL (≈ 103 µM) | 79.37% | insensitive (<30% means insensitive) | insensitive (<30% means insensitive) | – | – |
| O=C(c1ccccc1)c1ccc(O)c(O)c1O [2,3,4-trihydroxybenzophenone] | can no longer be detected | 0 copy/ml | can no longer be detected | 0 copy/ml | 28.7 µg/mL (≈ 125 µM) | 89.63% | – | insensitive (<30% means insensitive) | 45.81% | – |
| O=C(c1ccc(O)cc1O)c1ccc(O)cc1O [2,4,2′,4′-tetrahydroxybenzophenone] | can no longer be detected | 0 copy/ml | can no longer be detected | 0 copy/ml | 28.7 µg/mL (≈ 117 µM) | 42.13% | insensitive (<30% means insensitive) | insensitive (<30% means insensitive) | – | – |
| O=C(c1cc(O)c(O)cc1O)c1ccc(O)c(O)c1O | can no longer be detected | 0 copy/ml | can no longer be detected | 0 copy/ml | – | 72.41% | – | – | 53.62% | 30.75% |

— patent US10716769B2 (GUANGZHOU JTREAT BIOSCI. LTD., priority 2015, dated 2020)
